Results taken from PMC12315900, “A twist in the tale: shifting from covalent targeting of a tyrosine in JAK3 to a lysine in MK2” (RSC Medicinal Chemistry, 2025).

Tests used:
[1] = molecular target: T1, JAK3 (Homo sapiens, UniProt P52333); assay: biochemical
T1 sequence (P52333 1-1124): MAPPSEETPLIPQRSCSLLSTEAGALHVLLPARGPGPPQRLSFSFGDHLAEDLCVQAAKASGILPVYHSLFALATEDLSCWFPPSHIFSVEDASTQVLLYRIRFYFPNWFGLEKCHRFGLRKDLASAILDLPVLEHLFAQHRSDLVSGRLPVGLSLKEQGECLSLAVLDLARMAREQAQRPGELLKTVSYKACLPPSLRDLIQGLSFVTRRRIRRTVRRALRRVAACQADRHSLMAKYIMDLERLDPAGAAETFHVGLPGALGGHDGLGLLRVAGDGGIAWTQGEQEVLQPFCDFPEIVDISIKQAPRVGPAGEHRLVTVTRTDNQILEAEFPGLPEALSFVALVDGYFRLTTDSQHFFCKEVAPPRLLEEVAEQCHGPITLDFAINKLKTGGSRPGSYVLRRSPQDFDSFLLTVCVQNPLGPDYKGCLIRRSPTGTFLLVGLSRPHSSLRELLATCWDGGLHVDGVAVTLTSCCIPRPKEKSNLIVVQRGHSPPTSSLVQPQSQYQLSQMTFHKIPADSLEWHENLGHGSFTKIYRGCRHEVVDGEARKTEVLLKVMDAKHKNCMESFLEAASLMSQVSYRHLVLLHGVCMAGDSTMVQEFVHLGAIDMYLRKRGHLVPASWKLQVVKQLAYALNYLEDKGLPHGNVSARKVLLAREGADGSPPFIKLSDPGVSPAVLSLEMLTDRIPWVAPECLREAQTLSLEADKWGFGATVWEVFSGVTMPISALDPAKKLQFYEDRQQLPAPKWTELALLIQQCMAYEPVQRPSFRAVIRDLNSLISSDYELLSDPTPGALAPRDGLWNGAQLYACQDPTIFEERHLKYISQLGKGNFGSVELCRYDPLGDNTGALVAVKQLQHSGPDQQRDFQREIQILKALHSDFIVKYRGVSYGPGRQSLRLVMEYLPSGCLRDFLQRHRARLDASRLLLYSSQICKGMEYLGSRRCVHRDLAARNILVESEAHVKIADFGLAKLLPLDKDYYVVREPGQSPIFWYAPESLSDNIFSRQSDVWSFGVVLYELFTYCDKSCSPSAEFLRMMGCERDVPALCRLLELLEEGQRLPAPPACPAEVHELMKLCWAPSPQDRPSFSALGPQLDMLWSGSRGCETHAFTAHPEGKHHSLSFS

[2] = molecular target: T1, JAK3; conditions: JAK3 ELISA, same assay conditions (starting at 10 μM)
[3] = solubility observation; type: physicochemical
Text: While the warhead now cannot rotate away anymore, it also is very limited in the trajectory it can assume prior to/during the bond-forming event. On the other hand, the tyrosine side chain is also a rather rigid structure (especially considering the degrees of freedom of cysteine or e.g. lysine in comparison) and if two very rigid structures are supposed to react with each other, a proper pre-orientation and a binding mode that enables a strain-free reaction trajectory play a much bigger role than for the reaction of two more flexible moieties like, for example, acrylamide and cysteine.

[4] = molecular target: MK2 (Homo sapiens, UniProt P49137); assay: biochemical
[5] = tested on: MK2; set-up: method as in PMID 24900358; conditions: @100 μM ATP; cited from earlier work
[6] = molecular target: T2, MK2 (Homo sapiens, UniProt P49137, DEL216-236/P237G); assay: intact protein MS with MK2 (covalent modification); conditions: for Ratio [%] (AUC[mod]/(AUC[unmod]+AUC[mod])): 50 µM protein, 250 µM compound, room temperature, 3 hours, relative quantification from deconvoluted spectra; for covalent modification of MK2 (covalent binding): 5-fold excess compound over MK2, rt, 3 h
Protocol: using a NanoDrop 2000 spectrophotometer (Thermo Scientific), with molar extinction coefficient
and molecular weight specified using the "other protein (E & MW)" setting.
at 4 °C for 24 hours. For the negative control, an equivalent volume of DMSO was added to the
protein solution. To quench the reaction, 0.1% formic acid in the double-distilled water (ddH₂O)
was added in a 1:10 ratio (v/v), followed by desalting of the samples using C8 stage tips with the
MS data acquisition was carried out on a Time-of-Flight (TOF)
LC/MS system (Agilent 6200 series) equipped with a positive electrospray ionization (ESI) source.
A volume of 5 µL of the desalted sample was injected for mass spectrometry (MS) analysis. To
prevent cross-sample contamination, blank injections were run between each sample. Data were
deconvoluted and analyzed using Agilent’s MassHunter Bioconfirm software, applying a scan
range of 600–2000 m/z, a mass range of 10–100 kDa, a mass step of 1 Da, and a baseline
at room temperature for 3 hours. For the negative control, an equivalent volume of DMSO was
added to the protein solution. To quench the reaction, 0.1% formic acid in the double -distilled
water (ddH₂O) was added in a 1:10 ratio (v/v), followed by desalting of the samples using C8 stage
The UHPLC-system consisted of an Agilent
(G1316C) and a valve drive (G1170A) equipped with a 2-pos 6-port valve for online desalting of the
samples. Mobile phase A (water + 0.1 % (v/v) formic acid) and mobile phase B (acetonitrile + 0.1
% (v/v) formic acid) were used for gradient elution on a BIOshell Protein C4 HPLC column (5 cm x
2.1 mm, 3.4 μm, 400 Å; Merck, Darmstadt, Germany). The flow rate was set to 1.0 mL/min with
the following gradient settings: 0−0.2 min: 10 % B, 0.2−2.2 min: 10−80 % B, 2.2−3 min: 80 % B,
whole analysis. The UHPLC-system was coupled to a TripleTOF 5600+ mass spectrometer from
Sciex (Darmstadt, Germany) using a Duospray ion source in positiveionization mode and the
following source and MS parameters: curtain gas (CUR): 30 psi, nebulizing gas (GS1): 50 psi,
heater gas (GS2): 40 psi, ion spray floating voltage (ISVF): 5500 V, source temperature (TEM): 450
°C, collision energy (CE): 30 V, declustering potential (DP): 230 V. The acquisition was performed
in the TOF mode of the mass spectrometer using a mass range from 100 to 5000 m/z with an
accumulation time of 100 ms. Moreover, the IntactProteinMode -script from Sciex was used to
optimize MS settings for protein analysis. The Analyst TF 1.8.1 software and the PeakView
software 2.2.0 (both Sciex) were used for data acquisition and data analysis, respectively. Mass
spectra were deconvoluted using the BioToolKit 2.2.0 software package.
Relative quantification was performed with the area under curve (AUC) of each protein species in
the deconvoluted mass spectra with the PeakView software’s integration tool.
𝑅𝑎𝑡𝑖𝑜 [%] = 𝐴𝑈𝐶[𝑚𝑜𝑑] × 100

[7] = molecular target: T2, MK2; assay: kinact/KI from time- and concentration-dependent intact protein MS
Protocol: Determination of Kinetic Parameters
kinact/KI was measured based on time- and concentration-dependent analysis of intact protein
mass spectra using the bimolecular model described by the equations seen below, as reported
[PI]: concentration of the protein-compound complex, [PI*]: concentration
of the covalent protein-compound complex, [PI*] ≈ [PI] if kinact is relatively high. [P]0, [I]0:
concentration of initial protein and compound. t: incubation time(s).
When reaching each time point of incubation
(15 min, 30 min, 60 min, 120 min, 180 min), an aliquot of the reaction mixture was transferred into
1 % formic acid in ddH2O using a multichannel pipette (10 µL of sample added to 90 µL
ddH2O/1% formic acid), to stop the reaction at the exact time point. MS was performed and %
occupancy was calculated in the same way (see equations below).
time- and concentration -dependent % occupancy: import data as XY table. A nonlinear
regression fit was chosen to fit the curves, kinact/KI was set up as the constraint type of “Shared
value for all datasets”, initial value as 0, the rest settings are as default.
𝑂𝑐𝑐𝑢𝑝𝑎𝑛𝑐𝑦 [%] = 𝐼𝑚𝑜𝑑 × 100
[𝑃𝐼 ] = [𝑃]0[𝐼]0 ([𝑃] −[𝐼] )×𝑘 /𝐾 ×𝑡
𝑂𝑐𝑐𝑢𝑝𝑎𝑛𝑐𝑦 [%] = [𝑃𝐼] × 100

[8] = buffer stability at pH 7.4 (HPLC); type: physicochemical; conditions: pH 7.4, over the incubation time

Sequence of MK2 (Homo sapiens, UniProt P49137) (P49137 whole entry): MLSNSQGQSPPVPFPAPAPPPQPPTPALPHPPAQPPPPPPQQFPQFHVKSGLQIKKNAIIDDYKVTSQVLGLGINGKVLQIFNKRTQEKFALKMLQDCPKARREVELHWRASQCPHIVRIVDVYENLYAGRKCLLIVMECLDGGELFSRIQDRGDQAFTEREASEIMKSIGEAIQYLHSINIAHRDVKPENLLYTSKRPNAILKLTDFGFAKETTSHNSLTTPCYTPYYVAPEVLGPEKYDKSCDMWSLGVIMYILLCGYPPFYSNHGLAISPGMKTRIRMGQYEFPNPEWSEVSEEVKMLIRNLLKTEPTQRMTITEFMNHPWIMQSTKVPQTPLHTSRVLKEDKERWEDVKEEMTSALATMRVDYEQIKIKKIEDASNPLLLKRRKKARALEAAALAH
T2 sequence (P49137 with tags, fused parts or gaps DEL216-236/P237G): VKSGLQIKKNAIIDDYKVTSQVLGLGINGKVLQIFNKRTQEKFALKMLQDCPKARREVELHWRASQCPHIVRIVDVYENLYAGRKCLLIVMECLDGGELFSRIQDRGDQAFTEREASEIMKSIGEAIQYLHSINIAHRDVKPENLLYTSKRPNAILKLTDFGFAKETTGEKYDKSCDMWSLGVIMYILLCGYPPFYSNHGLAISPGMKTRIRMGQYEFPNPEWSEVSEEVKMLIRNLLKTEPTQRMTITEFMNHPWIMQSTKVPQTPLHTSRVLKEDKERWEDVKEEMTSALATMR

**Q.** Which IC50 [1] does the source give for N#Cc1cccc(-c2cn(C3CCCCC3)c3c2cnc2[nH]ccc23)c1 [compound 6] here?
**A.** 5.2 nM

**Q.** For O=c1c2cc(OS(=O)(=O)F)ccc2c2cnc3[nH]ccc3c2n1C1CCCCC1 [compound 35], which inhibitory activity [2] is on record?
**A.** no relevant inhibitory activity

**Q.** What about the solubility [3] of the same compound?
**A.** low solubility

**Q.** With O=C(c1ccc(-c2ccc(Cl)cc2)o1)N(Cc1ccccn1)c1ccc(N2CCNCC2)cc1 [compound 41, reference compound] as the compound, how does the IC50 [4] read?
**A.** > 5000 nM

**Q.** And the IC50 [5]?
**A.** 110 nM

**Q.** With O=C(c1ccc(-c2ccc(Cl)c(OS(=O)(=O)F)c2)o1)N(Cc1ccccn1)c1ccc(N2CCNCC2)cc1 [compound 42] as the compound, how does the “Ratio [%] (AUC[mod]/(AUC[unmod]+AUC[mod]))” value [6] read?
**A.** 94.28%

**Q.** And the “covalent modification of MK2 (covalent binding)” value (shortened to “covalent modification of MK2”) [6]?
**A.** 95%

**Q.** What about the kinact/KI [7] of the same compound?
**A.** 1.12 M⁻¹ s⁻¹

**Q.** Which “covalent modification of MK2” value [6] does the source give for O=C(c1ccc(-c2ccc(Cl)cc2)o1)N(Cc1ccccn1)c1ccc(N2CCNCC2)c(OS(=O)(=O)F)c1 [compound 43] here?
**A.** no binding at all

**Q.** With CC(C)(C)OC(=O)N1CCN(c2ccc(NC(=O)c3ccc(-c4ccc(Cl)cc4)o3)cc2S(=O)(=O)F)CC1 [compound 64] as the compound, how does the “covalent modification of MK2” value [6] read?
**A.** 15%

**Q.** What about the buffer stability [8] of the same compound?
**A.** some degradation

**Q.** Which “Ratio [%] (AUC[mod]/(AUC[unmod]+AUC[mod]))” value [6] does the source give for O=C(c1ccc(-c2ccc(Cl)cc2)o1)N(Cc1ccccn1)c1ccc(N2CCNCC2)c(S(=O)(=O)F)c1 [compound 65] here?
**A.** 14.51%

**Q.** What about the “covalent modification of MK2” value [6] of the same compound?
**A.** 15%

**Q.** Which IC50 [4] does the source give for O=C(c1ccc(-c2ccc(Cl)c(O)c2)o1)N(Cc1ccccn1)c1ccc(N2CCNCC2)cc1 [compound 66] here?
**A.** > 5000 nM

**Q.** With O=C(c1ccc(-c2ccc(Cl)cc2)o1)N(Cc1ccccn1)c1ccc(N2CCNCC2)c(O)c1 [compound 67] as the compound, how does the IC50 [4] read?
**A.** > 5000 nM
